Measured values from US12435032B2, “L-γ-methyleneglutamine compounds and methods of use” (University of Mississippi, priority 2019, dated 2025).
Read-outs that look alike come from different tables or passages of the source.

What was measured:
[1] = test system: MCF-7 (ER+/PR+/HER2−) breast cancer cells; assay: Growth inhibition of MCF-7 cells (Hoechst 33342 fluorescence vs non-treated wells); type: cell-based; conditions: dose-response 0.32-320 μM
Method: (§1) Olaparib was chosen because it is one of a few FDA-approved chemotherapeutics for triple-negative breast cancer.
(§2) Cells were incubated for 15 minutes at 37° C.

[2] = test system: SK-BR-3 (ER−/PR−/HER2+) breast cancer cells; assay: Growth inhibition of SK-BR-3 cells; type: cell-based; conditions: Homo sapiens, dose-response 0.32-320 μM
Method: as §1, §2

[3] = test system: triple-negative MDA-MB-231 breast cancer cells; assay: Growth inhibition of MDA-MB-231 cells; type: cell-based; conditions: for IC50: Homo sapiens; for IC50 / Growth Inhibition IC50: dose-response 0.32-320 μM
Method: as §1, §2

[4] = test system: MCF-10A non-cancerous breast cells; assay: Growth inhibition of MCF-10A cells (negative control line); type: cell-based; conditions: Homo sapiens, dose-response 0.32-320 μM
Method: as §1, §2

[5] = test system: MCF-7 breast cancer cells; assay: Cytotoxicity (cell death, propidium iodide) in MCF-7 cells; type: cell-based; conditions: for EC50: Homo sapiens, MCF7, dose-response 0.32-320 μM, read-out: Cytotoxicity EC50
[6] = test system: SK-BR-3 breast cancer cells; assay: Cytotoxicity (cell death, propidium iodide) in SK-BR-3 cells; type: cell-based; conditions: for EC50: Homo sapiens, dose-response 0.32-320 μM
[7] = Cytotoxicity (cell death, propidium iodide) in MCF-10A cells; type: cell-based; conditions: human, MCF-10A non-cancerous breast cells
Method: To assess the selectivity of cytotoxicity for cancer cells, all drugs and compounds were screened against MCF-10A, non-cancerous breast cells.
as §2

[8] = test system: triple-negative MDA-MB-231 breast cancer cells; assay: cells; conditions: Homo sapiens
[9] = Homo sapiens, MCF7, 24 h, MCF-7, 24 h exposure
[10] = Homo sapiens, MCF7, 72 h, MCF-7, 72 h exposure
[11] = SK-BR-3, 72 h / after the first 24 h
[12] = MDA-MB-231, 24 h, read-out: Cytotoxicity EC50
[13] = MDA-MB-231, 72 h, read-out: Cytotoxicity EC50
[14] = MDA-MB-231, read-out: cytotoxic EC50

SMILES | IC50 [1, 9] | IC50 [1, 10] | IC50 ([2]; SK-BR-3, 24 h exposure) | IC50 ([2]; SK-BR-3, 72 h exposure) | IC50 ([3]; MDA-MB-231, 24 h exposure) | IC50 ([3]; MDA-MB-231, 72 h exposure) | Growth Inhibition IC50 ([3]; MDA-MB-231, 24 h exposure) | Growth Inhibition IC50 ([3]; MDA-MB-231, 72 h exposure) | IC50 ([4]; 24 h exposure) | IC50 ([4]; 72 h exposure) | EC50 ([5]; MCF-7, 24 h exposure) | EC50 ([5]; MCF-7, 72 h exposure) | EC50 for MCF-7 cytotoxicity ([5]; MCF-7, 72 h exposure) | EC50 ([6]; SK-BR-3, 24 h exposure) | EC50 ([6]; SK-BR-3, 72 h exposure) | cytotoxicity EC50 [6, 11] | EC50 at 24 h ([7]; 24 h exposure) | EC50 at 24 h ([7]; head prints 24 h) | EC50 [8, 12] | EC50 [8, 13] | also measured
C=C(C[C@H](N)C(=O)O)C(=O)N1CCCCC1 [Compound 8, (S)-2-amino-4-(piperidine-1-carbonyl) pent-4-enoic acid] | 434 µM | 606 µM | 133 µM | 0.6 µM | 685 µM | 813 µM | poorer potency than both tamoxifen or olaparib | poorer potency than olaparib | > 1000 µM | > 1000 µM | 197 µM | 198 µM | did not change | 0.1 µM | > 1000 µM | much reduced toxicity | > 1000 µM | > 1000 µM | > 1000 µM | > 1000 µM | Growth Inhibition IC50 ([1]; MCF-7, 72 h exposure): significantly less potent than tamoxifen
C=C(C[C@H](N)C(=O)O)C(=O)Nc1ccc(F)cc1 [Compound 9, (S)-2-amino-4-((4-fluorophenyl)carbamoyl) pent-4-enoic acid] | 414 µM | 76 µM | 11.4 µM | 4.7 µM | 652 µM | 419 µM | – | – | > 1000 µM | > 1000 µM | 161 µM | 2.3 µM | significantly lower than tamoxifen | 0.2 µM | 0.1 µM | – | > 1000 µM | > 1000 µM | > 1000 µM | 450 µM | growth inhibition potency compared with olaparib ([3]; MDA-MB-231, throughout testing (24 h and 72 h)): equipotent to olaparib; cytotoxicity EC50 ([6]; SK-BR-3, at 24 or 72 h): commensurate EC50's at 24 or 72 h
C=C(C[C@H](N)C(=O)O)C(=O)Nc1ccc(Cl)cc1 [Compound 10, (S)-2-amino-4-((4-chlorophenyl)carbamoyl) pent-4-enoic acid] | 397 µM | 171 µM | 78.7 µM | 4 µM | 867 µM | 712 µM | poorer potency than both tamoxifen or olaparib | poorer potency than olaparib | > 1000 µM | > 1000 µM | 205 µM | 93.2 µM | – | 262 µM | > 1000 µM | much reduced toxicity | > 1000 µM | > 1000 µM | > 1000 µM | > 1000 µM | –
O=C(c1cc(Cc2n[nH]c(=O)c3ccccc23)ccc1F)N1CCN(C(=O)C2CC2)CC1 [Olaparib, reference compound] | > 1000 µM | – | 1.6 µM | 1.1 µM | 161 µM | 154 µM | – | – | > 1000 µM | > 1000 µM | > 1000 µM | 26.5 µM | micromolar EC50 | > 1000 µM | 0.1 µM | – | 511 µM | > 1000 µM | 61.2 µM | 97.1 µM | IC50 ([1]; MCF-7, 72 h exposure): 108 µM; EC50 for cytotoxicity ([5]; MCF-7, 24 h exposure): neither tamoxifen nor olaparib were cytotoxic; cytotoxicity ([6]; SK-BR-3, 24 h exposure): neither tamoxifen nor olaparib were cytotoxic; EC50 at 24 h ([7]; within the first 24 h): 268 to 511 µM; EC50 [8, 14]: ≤ 100 µM
CC/C(=C(\c1ccccc1)c1ccc(OCCN(C)C)cc1)c1ccccc1 [Tamoxifen, reference compound] | – | – | – | – | – | – | – | – | – | – | > 1000 µM | – | micromolar EC50 | > 1000 µM | 0.3 µM | – | 268 µM | > 1000 µM | 26 µM | 30.9 µM | EC50 for cytotoxicity ([5]; MCF-7, 24 h exposure): neither tamoxifen nor olaparib were cytotoxic; cytotoxicity ([6]; SK-BR-3, 24 h exposure): neither tamoxifen nor olaparib were cytotoxic; EC50 at 24 h ([7]; within the first 24 h): 268 to 511 µM; EC50 [8, 14]: ≤ 100 µM
